In brackets after ≈: the same amount, converted by molar mass.
Legend:
[1] = test system: AECO001 (E. coli ATCC25922); assay: MIC assay, CLSI broth microdilution; format: cell-based; conditions: Escherichia coli, Mueller Hinton Broth, 35 C, 20 hours
Description: (§1) Minimum inhibitory concentrations (MIC) were determined by reference Clinical and Laboratory Standards Institute (CLSI) broth microdilution methods per M7-A7 [2006]. Quality control ranges utilizing E. coli ATCC 25922, P. aeruginosa ATCC 27853 and S. aureus ATCC 29213, and interpretive criteria for comparator agents were as published in CLSI M100-S17 [2007]. Briefly, serial two-fold dilutions of the test compounds were prepared at 2× concentration in Mueller Hinton Broth. The compound dilutions were mixed in 96-well assay plates in a 1:1 ratio with bacterial inoculum. The inoculum was prepared by suspension of a colony from an agar plate that was prepared the previous day. Bacteria were suspended in sterile saline and added to each assay plate to obtain a final concentration of 5×10^5 CFU/mL. The plates were incubated at 35 C for 20 hours in ambient air.

[2] = test system: APAE001 (P. aeruginosa ATCC27853); assay: MIC assay, CLSI broth microdilution; format: cell-based; conditions: Pseudomonas aeruginosa, Mueller Hinton Broth, 35 C, 20 hours
Description: as §1

MIC [1] [µg/mL]	MIC [2] [µg/mL]	SMILES
1 to 16 (≈ 1.37 to 21.9 µM)	≤ 1	NC[C@@H](O)[C@H](O)C(=O)N[C@@H]1C[C@H](N)[C@@H](O[C@H]2O[C@H](CN)[C@@H](O)[C@@H](O)[C@H]2N)[C@H](O[C@@H]2O[C@H](CO)[C@@H](O[C@H]3O[C@@H](CN)[C@@H](O)[C@H](O)[C@H]3N)[C@H]2O)[C@H]1O [1/7]
1 to 16 (≈ 1.37 to 21.9 µM)	≤ 1	NC[C@@H]1O[C@H](O[C@H]2[C@@H](O)[C@H](O[C@@H]3[C@@H](O)[C@H](NC(=O)[C@@H](O)[C@@H](O)CN)C[C@H](N)[C@H]3O[C@H]3O[C@H](CN)[C@@H](O)[C@@H](O)[C@H]3N)O[C@@H]2CO)[C@H](N)[C@@H](O)[C@@H]1O [2/3]
1 to 16 (≈ 1.36 to 21.8 µM)	≤ 1	NC[C@@H](F)[C@H](O)C(=O)N[C@@H]1C[C@H](N)[C@@H](O[C@H]2O[C@H](CN)[C@@H](O)[C@@H](O)[C@H]2N)[C@H](O[C@@H]2O[C@H](CO)[C@@H](O[C@H]3O[C@@H](CN)[C@@H](O)[C@H](O)[C@H]3N)[C@H]2O)[C@H]1O [3/3]
1 to 16 (≈ 1.33 to 21.3 µM)	≤ 1	NC[C@@H]1O[C@H](O[C@H]2[C@@H](O)[C@H](O[C@@H]3[C@@H](O)[C@H](NC(=O)[C@@H](O)C(F)(F)CN)C[C@H](N)[C@H]3O[C@H]3O[C@H](CN)[C@@H](O)[C@@H](O)[C@H]3N)O[C@@H]2CO)[C@H](N)[C@@H](O)[C@@H]1O [4/3]
